Results as given in patent US5164314A, “Microbiologically-prepared diacetyl reductase” (priority 1988, dated 1992).
Several values for one entry are separate records, joined by “and”; a condition that tells them apart may be missing. Equal entries are not always repeated. Where two headings read alike, the source gives them in different places. Each block holds one compound with its values, some of them ahead of it.

Columns and labels:
[1] = tested on: Lc. enzyme (diacetyl reductase); experiment: Effect of various metal cations and inhibitors on the diacetyl-reducing activity; format: biochemical, Lactobacillus kefir; conditions: for Inhibition of the enzyme (in words): 1 mM concentration
Description: In order to determine the behavior of the diacetyl-reducing activity in the presence of metal cations and inhibitors, the appropriate substances were added in a concentration of 1 mM to the assay, and the activities were determined after an incubation time of 5 min at 20° C. The absorption characteristics of diacetyl made it necessary to determine two blanks, one measured with replacement of enzyme solution, and the other measured by replacing substrate solution by buffer.

[2] = tested on: diacetyl reductase E1; experiment: Substrate spectrum and KM determination, enzyme E1; format: biochemical, Lactobacillus kefir; design: Rel. Vmax E1: unit not given here
[3] = tested on: diacetyl reductase E2; experiment: Substrate spectrum and KM determination, enzyme E2; format: biochemical, Lactobacillus kefir
Description: To determine KM, the activity of both Lactobacillus enzymes was measured as a function of the substrate concentration.
Various substrates were assayed with the most highly-purified preparations of the Lc. enzymes E1 and E2. The maximum conversion rate and KM were measured for each substrate by altering the concentration.

[4] = tested on: diacetyl reductase E1; experiment: Stereospecificity by oxidation of D(-)- and L(+)-lactic acid, enzyme E1; format: biochemical, Lactobacillus kefir; conditions: NAD+, potassium phosphate buffer pH 7.0
Source text: (§1) But since the enzyme can also reduce pyruvate (as shown in Table 5), this provides a method of establishing the stereospecificity on the basis of the pair of substrates (+)- and (-)-lactate. In assay mixtures with D(-)- or L(+)-lactic acid and NAD^+ in potassium phosphate buffer (pH 7.0), the two enzymes E1 and E2 were able to convert D(-)-lactic acid very well, whereas […] was converted with 5% of this activity by E1 and with 4% of this activity by E2.

[5] = tested on: diacetyl reductase E2; experiment: Stereospecificity by oxidation of D(-)- and L(+)-lactic acid, enzyme E2; format: biochemical, Lactobacillus kefir; conditions: NAD+, potassium phosphate buffer pH 7.0
Source text: as §1

[6] = tested on: diacetyl reductase; experiment: Acetoin oxidation reaction with NAD as coenzyme; format: biochemical, Lactobacillus kefir; conditions: pH and concentrations altered
[7] = Conversion of diacetyl by available lactate dehydrogenase; format: biochemical
Source text: But it can be stated that, when available lactate dehydrogenase is used, diacetyl is not converted.

[8] = tested on: diacetyl reductase
Description: The enzyme was incubated with various concentrations of manganese chloride in an ice bath for 1 hour. The activity of each sample was then determined and, after 15 and 30 min, the activities were redetermined by renewed NADH addition.

[9] = 1 mM, incubation 5 min at 20° C.
[10] = most highly-purified E1, read-out: Km E1
[11] = most highly-purified E2, read-out: Km E2

Compound: [Cl-].[Cl-].[Zn+2] [ZnCl2]
- Residual activity of the Lc. enzyme [1, 9]: 85%

Compound: Triton X-100
- Residual activity of the Lc. enzyme [1, 9]: 113%

Compound: NC(=O)C1=CN([C@@H]2O[C@H](COP(=O)(O)OP(=O)(O)OC[C@H]3O[C@@H](n4cnc5c(N)ncnc54)[C@H](O)[C@@H]3O)[C@@H](O)[C@H]2O)C=CC1 [NADH, nicotinamide adenine dinucleotide, reduced]
- Rel. Vmax E1 ([2]; most highly-purified E1): 100
- Km [2, 10]: 0.03 mM
- Rel. Vmax E2 ([3]; most highly-purified E2): 100
- Km [3, 11]: 0.036 mM

Compound: O=C(O)CI [Iodoacetic acid]
- Residual activity of the Lc. enzyme [1]: 102%

Compound: [Ba+2].[Cl-].[Cl-] [BaCl2]
- Residual activity of the Lc. enzyme [1, 9]: 102%

- Activity relative to that with D(-)-lactic acid, E1 [4]: 5%
- Activity relative to that with D(-)-lactic acid, E2 [5]: 4%
Compound: C[C@H](O)C(=O)O [L(-)-lactic acid, L(+)-lactic acid]

- Rel. Vmax E1 ([2]; most highly-purified E1): 109
- Km [2, 10]: 2.4 mM
- Rel. Vmax E2 ([3]; most highly-purified E2): 77
- Km [3, 11]: 2.1 mM
Compound: CCOC(=O)C(C)=O [Ethyl pyruvate]

Compound: Diacetylbenzene
- Rel. Vmax E1 ([2]; most highly-purified E1): 1.3

- Residual activity of the Lc. enzyme [1, 9]: 106%
Compound: O[C@H](CS)[C@H](O)CS [Dithiothreitol]

Compound: CC(=O)CCC(C)=O [2,5-Hexanedione]
- Rel. Vmax E1 ([2]; most highly-purified E1): 7
- Km [2, 10]: 26 mM

- Conversion of lactic acid by E1 (in words) [4]: very well
- Conversion of lactic acid by E2 (in words) [5]: very well
Compound: C[C@@H](O)C(=O)O [D(-)-lactic acid]

Compound: NC(=O)CI [Iodoacetamide]
- Residual activity of the Lc. enzyme [1, 9]: 99%

- Residual activity of the Lc. enzyme [1, 9]: 72%
Compound: O[C@H](CS)[C@@H](O)CS [1,4-Dithioerythritol]

Compound: [Cl][Cu][Cl] [CuCl2]
- Inhibition of the enzyme (in words) [1]: strong inhibition
- Residual activity of the Lc. enzyme [1, 9]: 0%

Compound: [Cl][Fe][Cl] [FeCl2]
- Inhibition of the enzyme (in words) [1]: strong inhibition
- Residual activity of the Lc. enzyme [1, 9]: 0%

- acetoin oxidation reaction (in words) [6]: never possible to measure
Compound: CC(=O)C(C)O (single isomer, unassigned) [acetoin]

Compound: lactate dehydrogenase
- conversion of diacetyl (in words) [7]: not converted

Compound: [Cl][Mn][Cl] [MnCl2, manganese chloride]
- Residual activity of the Lc. enzyme [1, 9]: 91%
- rel. activity ([8]; 1 mM manganese, 15 min): 69%
- rel. activity ([8]; 1 mM manganese, 30 min): 0.3%
- rel. activity ([8]; 1 mM manganese, t = 0): 100%
- rel. activity ([8]; 2 mM manganese, 15 min): 79%
- rel. activity ([8]; 2 mM manganese, 30 min): 25%
- rel. activity ([8]; 2 mM manganese, t = 0): 100%
- Effect on enzyme stability (in words) ([8]; 5 mM): distinctly stabilizes the enzyme
- rel. activity ([8]; 5 mM manganese, 15 min): 88%
- rel. activity ([8]; 5 mM manganese, 30 min): 39%
- rel. activity ([8]; 5 mM manganese, t = 0): 100%
- rel. activity ([8]; 10 mM manganese, 15 min): 46%
- rel. activity ([8]; 10 mM manganese, 30 min): 19%
- rel. activity ([8]; 10 mM manganese, t = 0): 100%

Compound: [Cl-].[Cl-].[Co+2] [CoCl2]
- Residual activity of the Lc. enzyme [1, 9]: 102%

- Residual activity of the Lc. enzyme [1, 9]: 103%
Compound: N[C@@H](CCC(=O)N[C@@H](CS)C(=O)NCC(=O)O)C(=O)O [Gluthathione]

Compound: O=C(O)c1cc(SSc2ccc([N+](=O)[O-])c(C(=O)O)c2)ccc1[N+](=O)[O-] [2,2'-Dinitro-5,5'-dithiodibenzoic acid]
- Inhibition of the enzyme (in words) [1]: strong inhibition
- Residual activity of the Lc. enzyme [1, 9]: 0%

Compound: O=C(O)c1cc[c]([Hg+])cc1.[OH-] [p-Hydroxymercuribenzoate]
- Residual activity of the Lc. enzyme [1, 9]: 79%

Compound: O=C(O)CN(CCN(CC(=O)O)CC(=O)O)CC(=O)O [EDTA]
- Residual activity of the Lc. enzyme [1]: 94%

Compound: c1ccc(-c2ccccn2)nc1 [2,2'-Bipyridyl]
- Residual activity of the Lc. enzyme [1, 9]: 19%

Compound: CC(=O)CC(C)=O [Acetylacetone, 2,4-pentanedione]
- Km ([2]; enzyme not named in b63 (E1 in Table 5), read-out: Km for acetylacetone): 50 mM
- Rel. Vmax E1 ([2]; most highly-purified E1): 8
- Km [2, 10]: 50 mM

Compound: [Cl][Fe]([Cl])[Cl] [FeCl3]
- Residual activity of the Lc. enzyme [1, 9]: 82%

- diacetyl concentration of substrate saturation, E1 [2]: above 1 M
- Rel. Vmax E1 ([2]; most highly-purified E1): 100
- diacetyl concentration of substrate saturation, E2 [3]: above 1 M
- Km ([3]; linear regression of Lineweaver-Burke plot, read-out: Km (E2)): 67 mM
- Rel. Vmax E2 ([3]; most highly-purified E2): 100
- Km [3, 11]: 67 mM
- Km ([3]; pH 4.25, read-out: KM for the reduction of diacetyl (E2)): 67 mM
Compound: CC(=O)C(C)=O [Diacetyl]

- Residual activity of the Lc. enzyme [1, 9]: 100%
Compound: N[C@H]1CONC1=O [L-Cycloserine]

Compound: [Ca+2].[Cl-].[Cl-] [CaCl2]
- Residual activity of the Lc. enzyme [1, 9]: 96%

Compound: CCN1C(=O)C=CC1=O [N-Ethylmaleimide]
- Residual activity of the Lc. enzyme [1, 9]: 112%

Compound: O=S(=O)(F)Cc1ccccc1 [PMSF]
- Inhibition of the enzyme (in words) [1]: less inhibition
- Residual activity of the Lc. enzyme [1, 9]: 29% and 30%

Compound: [Cl][Hg][Cl] [HgCl2]
- Inhibition of the enzyme (in words) [1]: strong inhibition
- Residual activity of the Lc. enzyme [1, 9]: 0%

Compound: NNc1ccccc1 [Phenylhydrazine]
- Inhibition of the enzyme (in words) [1]: strong inhibition
- Residual activity of the Lc. enzyme [1, 9]: 0%

Compound: [Cl-].[Cl-].[Mg+2] [MgCl2]
- Inhibition of the enzyme (in words) [1]: strong inhibition
- Residual activity of the Lc. enzyme [1, 9]: 0%

- Inhibition of the enzyme (in words) [1]: strong inhibition
- Residual activity of the Lc. enzyme [1, 9]: 0%
Compound: c1cnc2c(c1)ccc1cccnc12 [1,10-Phenanthroline]

- Residual activity of the Lc. enzyme [1, 9]: 100%
Compound: CCC(CC)(C(=O)O)C(=O)O [Diethylmalonic acid]

Compound: [Cl][Ni][Cl] [NiCl2]
- Residual activity of the Lc. enzyme [1, 9]: 100%
